Test results from BindingDB's records for patent US20250236619 (Chia Tai Tianqing Pharmaceutical Group Co., 2025).

Biological target: Mitogen-activated protein kinase kinase kinase kinase 1 (Homo sapiens, UniProt Q92918)
Assay: Assay for In Vitro Inhibitory Activity Against HPK1 Kinase
Method: A kinase buffer (Enzymatic buffer 5×) was diluted to 1×, and 10 mM MgCl2, 1 mM DTT, and 0.005% Tween 20 were added. A 100 ng/μL HPK1 (Life technology) stock solution was diluted with the kinase buffer to obtain a 1.67×, 1.67 ng/μL working solution (final concentration: 1 ng/μL), and the working solution was seeded in a 384-well plate at 6 μL/well. Different compounds dissolved in DMSO were added to the wells using a nanoliter pipettor to obtain final concentrations of the compounds of 1000 nM to 0.244 nM (4-fold serial dilution, 7 concentrations in total), and blank control wells (without enzyme) and negative control wells (with enzyme, plus vehicle DMSO) were set; the wells were set in duplicate. After the enzyme and the compounds were incubated at room temperature for 1 h, a 5×, 5 mM ATP dilution (final concentration: 1 mM) in the kinase buffer was mixed with a 5×, […] (Cisbio, STK Substrate 1-biotin; final concentration: 500 nM) in equal volume, and the mixture was added to the plate at 4 µL/well. The plate was sealed with a film and then incubated at room temperature for 2 h. An assay antibody solution was prepared by mixing the antibody STK Antibody-cryptate (Cisbio, 5 μL/test) and a 4×, 500 nM Streptavidin-XL665 (Cisbio; final concentration: 125 nM) in equal volume and added to the plate at 10 μL/well. The plate was incubated at room temperature for 1 h. The signal values ([…]) were measured using a PE Envision multimode microplate reader, and IC50 was calculated by four-parameter fitting.

Sequence of Mitogen-activated protein kinase kinase kinase kinase 1 (Q92918 whole entry): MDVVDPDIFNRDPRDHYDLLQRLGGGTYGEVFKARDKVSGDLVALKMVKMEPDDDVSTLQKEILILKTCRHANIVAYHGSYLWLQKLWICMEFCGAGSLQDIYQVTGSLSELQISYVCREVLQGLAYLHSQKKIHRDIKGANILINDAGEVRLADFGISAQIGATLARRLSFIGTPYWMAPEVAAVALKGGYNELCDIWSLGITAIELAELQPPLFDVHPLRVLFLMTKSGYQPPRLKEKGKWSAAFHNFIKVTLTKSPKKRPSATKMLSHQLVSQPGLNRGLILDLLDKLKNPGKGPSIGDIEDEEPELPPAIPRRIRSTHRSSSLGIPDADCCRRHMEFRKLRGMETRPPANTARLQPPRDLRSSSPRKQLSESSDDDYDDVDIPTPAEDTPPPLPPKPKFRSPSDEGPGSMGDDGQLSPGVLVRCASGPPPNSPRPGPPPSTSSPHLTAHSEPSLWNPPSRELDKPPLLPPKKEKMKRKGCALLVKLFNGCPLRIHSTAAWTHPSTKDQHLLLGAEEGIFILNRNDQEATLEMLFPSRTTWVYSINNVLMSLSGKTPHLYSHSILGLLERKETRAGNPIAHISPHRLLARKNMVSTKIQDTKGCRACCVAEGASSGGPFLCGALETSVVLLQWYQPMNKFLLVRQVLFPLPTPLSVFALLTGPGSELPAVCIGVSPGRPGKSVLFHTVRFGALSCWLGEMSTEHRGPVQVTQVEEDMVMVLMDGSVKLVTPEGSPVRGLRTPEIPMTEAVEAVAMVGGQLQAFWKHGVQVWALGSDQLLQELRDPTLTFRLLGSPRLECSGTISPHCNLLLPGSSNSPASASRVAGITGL

Row | IC50 [nM] | SMILES
1 | 1.7 | [2H]C([2H])(c1nc(Nc2cnc(-c3ccnc4c3c3c(n4C)CCC3)c3c2C(=O)NC3)ccc1C1CCOCC1)N(C)C [US20250236619, Compound I-17]
2 | 11 | CN(C)Cc1nc(Nc2ccc(-c3ncnc4[nH]c5c(c34)CCC5)c3c2C(=O)NC3)ccc1C1CCOCC1 [US20250236619, Compound I-24]
3 | 2.1 | CN(C)Cc1nc(Nc2ccc(-c3cnn4c3CC3(CC3)C4)c3c2C(=O)NC3)ccc1C1CCOCC1 [US20250236619, Compound I-34]
4 | 6.4 | CN(C)Cc1nc(Nc2ccc(-c3cnc4ccc5c(n34)CCO5)c3c2C(=O)NC3)ccc1C1CCOCC1 [US20250236619, Compound I-35]
5 | 1.7 | CN(C)Cc1nc(Nc2ccc(-c3cnn4ccc5occc5c34)c3c2C(=O)NC3)ccc1C1CCOCC1 [US20250236619, Compound I-38]
6 | 2.1 | CN(C)Cc1nc(Nc2cnc(-c3cnn4ccc5occc5c34)c3c2C(=O)NC3)ccc1C1CCOCC1 [US20250236619, Compound I-46]
7 | 4.7 | CN(C)Cc1nc(Nc2cnc(-c3cnn4ccc5occc5c34)c3c2C(=O)NC3)ccc1N1CCOCC1 [US20250236619, Compound I-47]
8 | 2.6 | CN(C)Cc1nc(Nc2ccc(-c3cnc4cnc5occc5n34)c3c2C(=O)NC3)ccc1C1CCOCC1 [US20250236619, Compound I-48]
9 | 29 | CN(C)Cc1nc(Nc2ccc(-c3cnc4ccc5occc5n34)c3c2C(=O)NC3)ccc1N1CCN(C)C1=O [US20250236619, Compound I-50]
10 | 36 | CN(C)Cc1nc(Nc2ccc(-c3cnc4ccc5occc5n34)c3c2C(=O)NC3)ccc1N1CCCC1=O [US20250236619, Compound I-52]
11 | 2.7 | [2H]C([2H])(c1nc(Nc2ccc(-c3cnn4c3CC3(CC3)C4)c3c2C(=O)NC3)ccc1C1CCOCC1)N(C)C [US20250236619, Compound I-53]
12 | 6.6 | CN(C)Cc1nc(Nc2ccc(-c3cnc4cnc5occc5n34)c3c2C(=O)NC3)ccc1C1CCOC1 (stereo not drawn) [US20250236619, Compound I-54]
13 | 15 | CN(C)Cc1nc(Nc2cnc(-c3cnn4c3CC3(CC3)C4)c3c2C(=O)NC3)ccc1C1CCOCC1 [US20250236619, Compound I-55]
14 | 17 | O=C1NCc2c(-c3cnn4ccc5occc5c34)ccc(Nc3ccc(N4CCOCC4)c([C@H]4CCCN4)n3)c21 [US20250236619, Compound I-57]
15 | 5.6 | CN(C)Cc1nc(Nc2ccc(-c3cnc4cnc5occc5n34)c3c2C(=O)NC3)ccc1C1CC(=O)N(C)C1 (stereo not drawn) [US20250236619, Compound I-58]
16 | 2.3 | CN(C)Cc1nc(Nc2ccc(-c3cnn4ccc5occc5c34)c3c2C(=O)NC3)ccc1C1CC(=O)N(C)C1 (stereo not drawn) [US20250236619, Compound I-59]
17 | 2.9 | CN(C)Cc1nc(Nc2ccc(-c3cnn4ccc5occc5c34)c3c2C(=O)NC3)ccc1C1CCCO1 (stereo not drawn) [US20250236619, Compound I-64]
18 | 21 | CN(C)Cc1nc(Nc2ccc(-c3cnc4cnc5occc5n34)c3c2C(=O)NC3)ccc1C1CCCO1 (stereo not drawn) [US20250236619, Compound I-65]
19 | 2.5 | CN(C)Cc1nc(Nc2ccc(-c3cnc4ccc5occc5n34)c3c2C(=O)NC3)ccc1C1CCN(C)C(=O)C1 (stereo not drawn) [US20250236619, Compound I-66]
20 | 4.6 | CN(C)Cc1nc(Nc2ccc(-c3cnn4c3CC3(CC3)C4)c3c2C(=O)NC3)ccc1C1CCN(C)C(=O)C1 (stereo not drawn) [US20250236619, Compound I-67]
21 | 7.5 | CC(=O)N(C)c1ccc(Nc2ccc(-c3cnn4ccc5occc5c34)c3c2C(=O)NC3)nc1CN(C)C [US20250236619, Compound I-70]
22 | 1.8 | CN(C)Cc1nc(Nc2ccc(-c3cnn4ccc5occc5c34)c3c2C(=O)NC3)ccc1N1CCN(C)C(=O)C1 [US20250236619, Compound I-76]
23 | 2.8 | CN(C)Cc1nc(Nc2ccc(-c3cnc4cnc5occc5n34)c3c2C(=O)NC3)ccc1C1CCN(C)CC1 [US20250236619, Compound I-80]
24 | 2 | CN(C)Cc1nc(Nc2ccc(-c3cnn4ccc5occc5c34)c3c2C(=O)NC3)ccc1-c1ccn(C)c(=O)c1 [US20250236619, Compound I-81]
25 | 2 | CN(C)Cc1nc(Nc2ccc(-c3cnn4ccc5occc5c34)c3c2C(=O)NC3)ccc1C1CCN(C)CC1 [US20250236619, Compound I-83]
26 | 2.6 | CN(C)Cc1nc(Nc2ccc(-c3ccnc4c3c3c(n4C)CCC3)c3c2C(=O)NC3)ccc1C1CCN(C)C(=O)C1 (stereo not drawn) [US20250236619, Compound I-84]
27 | 3.8 | CNCc1nc(Nc2ccc(-c3cnn4ccc5occc5c34)c3c2C(=O)NC3)sc1C1CCOCC1 [US20250236619, Compound I-85]

Row | SMILES | IC50 [nM]
28 | CN(C)Cc1nc(Nc2cnc(-c3nnc4ccc5c(n34)CCC5)c3c2C(=O)NC3)ccc1C1CCOCC1 [US20250236619, Compound I-25] | 32
